Laboratory results taken from patent publication US8586369B2, “Ion channel-forming peptides” (The Regents of the University of California, priority 2007, dated 2013).

Key:
Assay type in all cases: biochemical
[1] = Single-channel conductance of homodimeric gA pores in planar lipid bilayers made from DiPhyPC (Example 1); conditions: for Single-channel conductance γ: HEPES pH 7.4, DiPhyPC bilayers, slope of I-V curves; for γ-ratio to gA-gA: pH 7.4, DiPhyPC
Experimental: Formation of planar lipid bilayers: We formed most planar lipid bilayers with the “folding technique.” We used a Teflon film (Eastern Scientific Inc, pore diameter 0.18-0.25 mm) was pretreated on each side with 2.5 μL of 5% hexadecane in pentane and air dried. This film was mounted using vacuum grease (Dow Corning, High vacuum grease) to a custom made Teflon chamber separating two buffer compartments each with a volume capacity of 4 mL. After adding 1 mL of electrolyte (0.01 M to 1.00 M KCl buffered with HEPES pH 7.4) to each compartment, lipids were spread from a solution in pentane onto the surface of the electrolyte solutions (specifically, 4-6 μL from 25 mg mL-l solution DiPhyPC or from 6.25 mg mL-l each of 50% DOPS and 50% POPE or from 25 mg mL-l DODAP mixed with 25 mg mL-l DiPhyPC in a 1:9 ratio. Three additional milliliters of electrolyte solution were added to each side of the chamber to raise the liquid levels above the aperture. We formed the bilayers from apposition of two monolayers of lipids using the method described by Montal et al. (Proc. Natl. Acad. Sci. U.S.A. 1972, 69, 3561-3566). Briefly, bilayers were obtained by consecutively raising the liquid level in each compartment until the pore was completely covered by electrolyte. If at this point the pore was not closed by a lipid bilayer, then the liquid level in one or both compartments was lowered below the pore level by aspirating electrolyte into a 3 mL syringe, followed by raising the electrolyte solution again.
Planar lipid bilayers were also made with the “painting technique”. We pretreated each side of a pore in a bilayer cup (Warner Instruments, Delrin perfusion cup, volume 1 mL, pore diameter 250 μm) with ˜2 μL of a 25 mg mL-l solution of DiPhyPC in hexane. After adding recording buffer (0.01 M KCl to 1.00 M KCl buffered with HEPES, pH=7.4) to both compartments of the bilayer setup, we “painted” a solution of 20 mg mL-l DiPhyPC in n-decane over the pore by using a paint brush with a fine tip. We followed the thinning of the decane droplet to form a planar bilayer by monitoring the capacitance of the bilayer. After verifying that bilayers were stable for several minutes (in the range of ±200 mV applied voltage) and that the capacitances were above 80-90 pF, gA was added (4-8 μL from 1 ng mL-l in ethanol), derivatives 1 or 2 (2-10 μL from 100 ng mL-l in ethanol), or derivative 3 (4-10 μL from 100 ng mL-l in ethanol) directly to the bilayer chambers.
Ion channel measurements: We performed single channel recordings in “voltage clamp mode” using Ag/AgCl electrodes (Warner Instruments) in each compartment of the bilayer chambers. Data acquisition and storage was carried out using custom software in combination with either an EPC-7 patch clamp amplifier from List Medical Electronic (set at a gain of 100 mV pA-1 and a filter cutoff frequency of 3 kHz) or a Geneclamp 500 amplifier from Axon Instruments (with a CV-5B 100GU headstage, set at a gain of 100 mV pA-1 and filter cutoff frequency of 1 kHz). We used the EPC-7 amplifier for most folded bilayers and the Geneclamp 500 amplifier for most painted bilayers. The data acquisition boards for both amplifiers were set to a sampling frequency of 15 kHz. All current traces shown in the figures were further filtered using a digital Gaussian low-pass filter with a cutoff frequency of 30 Hz. The current traces we used to generate all data that was recorded at applied potentials s 50 mV were filtered at 10 Hz.
We performed the analysis of the single channel current traces by computing histograms of the currents from the original current-time traces with ClampFit 9.2 software from Axon Instruments. From these histograms we extracted the main current values by fitting a Gaussian function to the peaks in the histograms. […] Single channel conductances reported in this paper always refer to the main conductance state (i.e. to the dominant peaks in the current histograms).

[2] = Single-channel conductance in bilayers with positively-charged headgroups (10% DODAP, 90% DiPhyPC); conditions: 20 mM KCl
Experimental: The conductance of gA-gA and 2-2 in lipid bilayers that contained 10% of a lipid with positively-charged headgroups (here, 1,2-dioleoyl-3-(dimethylamino)propane, DODAP, and 90% DiPhyPC) was measured.
Formation of planar lipid bilayers: We formed most planar lipid bilayers with the “folding technique.” We used a Teflon film (Eastern Scientific Inc, pore diameter 0.18-0.25 mm) was pretreated on each side with 2.5 μL of 5% hexadecane in pentane and air dried. This film was mounted using vacuum grease (Dow Corning, High vacuum grease) to a custom made Teflon chamber separating two buffer compartments each with a volume capacity of 4 mL. […]
Ion channel measurements: We performed single channel recordings in “voltage clamp mode” using Ag/AgCl electrodes (Warner Instruments) in each compartment of the bilayer chambers. […] The current traces we used to generate all data that was recorded at applied potentials s 50 mV were filtered at 10 Hz. […]

[3] = Single-channel conductance of homodimeric gA pores in planar lipid bilayers made from DiPhyPC (Example 1); conditions: 20 mM KCl plus 10 mM KOH
[4] = Single-channel conductance in negatively charged planar bilayers (50% POPE, 50% DOPS); conditions: 0.01 M KCl, 0.1 mM HEPES pH 7.4
Excerpt: The data acquisition boards for both amplifiers were set to a sampling frequency of 15 kHz.

For taurinyl gramicidate [compound 2], which “Single-channel conductance γ” value ([1]; 0.01 M KCl, homodimers) is on record?
Its value is 4.3 ± 0.3 pS.

What about the “ratio between the conductance of 2-2 and gA-gA” value ([1]; 0.02 M KCl, 100 mV applied potential) of the same substance?
The value was 1.4.

And the “ratio between the conductance of 2-2 and gA-gA” value ([1]; 0.02 M KCl, 200 mV applied potential)?
The value was 1.5.

What about the “conductance compared with gA-gA at pH 7.4” value ([1]; 20 mM KCl, DiPhyPC) of the same substance?
Its value is “significantly larger”.

What about the “γ at pH 7.4” value ([1]; 20 mM KCl, DiPhyPC bilayers, homodimers) of the same substance?
The value was 5.8 ± 0.1 pS.

What about the “overall conductance of heterodimeric pore of gA and 2, with 2 at the entrance of the pore” value ([1]; 0.02 M KCl, DiPhyPC, transmembrane potentials above 100 mV) of the same substance?
Its value is “approximately the same as that of homodimeric pores from 2”.

What about the “Single-channel conductance γ” value ([1]; 0.10 M KCl, homodimers) of the same substance?
The value was 12.6 ± 0.4 pS.

What about the “γ-ratio to gA-gA” value ([1]; 0.10 M KCl) of the same substance?
Its value is 1.2.

And the “Single-channel conductance γ” value ([1]; 1.00 M KCl, homodimers)?
The value was 21.5 ± 0.3 pS.

And the “γ-ratio to gA-gA” value ([1]; 1.00 M KCl)?
Its value is 1.1.

What about the “current as share of the estimated maximum, mass transport limited current (3 pA)” value ([1]; 200 mV applied potential, 0.02 M KCl) of the same substance?
Its value is ~30%.

What about the “difference in single channel conductance compared to gA” value ([1]; approximately 1.00 M KCl) of the same substance?
The value was < 10%.

What about the “increase of the relative ratio of conductance of 2-2 to gA-gA versus purely zwitterionic lipids” value [2] of the same substance?
Its value is 10%.

What about the “conductance compared with gA-gA at pH 12” value ([3]; DiPhyPC) of the same substance?
The value was “significantly larger”.

And the “γ at pH 12” value ([3]; DiPhyPC bilayers, homodimers)?
Its value is 9.8 ± 0.2 pS.

And the “Single-channel conductance γ in negatively charged bilayers” value [4]?
The value was 24.4±0.5 pS.
